# Test results published in ChEMBL document CHEMBL1201862, “PubChem BioAssay data set” (2004).
# Active and inactive are the calls of the source. Unless noted, the rule behind the calls is not given here.
# How the values were obtained:
# [1] = target: Polyadenylate-binding protein 1 (Homo sapiens, UniProt P11940); test: blockers of PABP interaction with poly(A) – biochemical, fluorescence polarization, […] (AID 2014)
# [2] = target: Eukaryotic translation initiation factor 4H (Homo sapiens, UniProt Q15056); test: eIF4H binding inhibition – biochemical, uHTS, fluorescence polarization, translation initiation inhibitor project, primary screen (AID 2012)
# [3] = target: 5-hydroxytryptamine receptor 4 (Homo sapiens, UniProt Q13639); test: Late-stage radioligand binding dose response assay to identify inhibitors of NADPH oxidase 1 (NOX1): PDSP screen Ki. [Related pubchem assays (depositor defined):AID1792, AID1796, AID1823, AID2532, AID2538, AID2539, AID2541, AID2545, AID2556, AID2664, AID2752, AID2773, AID434992, AID434993, AID434997, AID435002, AID435009, AID435013, AID463255 …
# [4] = target: Alpha-2A adrenergic receptor (Homo sapiens, UniProt P08913); test: as above
# [5] = target: Muscarinic acetylcholine receptor M5 (Homo sapiens, UniProt P08912); test: as above
# [6] = target: Alpha-2B adrenergic receptor (Homo sapiens, UniProt P18089); test: as above
# [7] = Trypanosoma cruzi growth suppression in host cells – NIH3T3 host cells, beta-gal luminescence, confirmation (AID 2044); assay type: functional, cell-based;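 also: intracellular parasites grown in NIH/3T3 mouse fibroblasts as host cells; luminescent beta-galactosidase reporter signal from transgenic T. cruzi replicating inside host cells; inhibitors lower the luminescence signal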
# [8] = target: Sodium-dependent serotonin transporter (Homo sapiens, UniProt P31645); test: Late-stage radioligand binding dose response assay to identify inhibitors of NADPH oxidase 1 (NOX1): PDSP screen Ki. [Related pubchem assays (depositor defined):AID1792, AID1796, AID1823, AID2532, AID2538, AID2539, AID2541, AID2545, AID2556, AID2664, AID2752, AID2773, AID434992, AID434993, AID434997, AID435002, AID435009, AID435013, AID463255 …
# [9] = target: 5-hydroxytryptamine receptor 2B (Homo sapiens, UniProt P41595); test: as above
# [10] = NIH3T3 cell viability loss – ATP luminescence, mouse fibroblasts, counter-screen, dose response (AID 2010); assay type: functional, cell-based;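 also: cells exposed to compound for about 90 hours before reading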
# [11] = target: D(3) dopamine receptor (Homo sapiens, UniProt P35462); test: Late-stage radioligand binding dose response assay to identify inhibitors of NADPH oxidase 1 (NOX1): PDSP screen Ki. [Related pubchem assays (depositor defined):AID1792, AID1796, AID1823, AID2532, AID2538, AID2539, AID2541, AID2545, AID2556, AID2664, AID2752, AID2773, AID434992, AID434993, AID434997, AID435002, AID435009, AID435013, AID463255 …
# [12] = target: Alpha-2C adrenergic receptor (Homo sapiens, UniProt P18825); test: as above
# [13] = target: Muscarinic acetylcholine receptor M3 (Homo sapiens, UniProt P20309); test: as above
# [14] = viability of uninfected HEp-2 cells – cell-based, HTS, cytotoxicity control for RSV inhibitor project, dose response (AID 2410); assay type: functional; details: human respiratory syncytial virus
# [15] = target: Oxytocin receptor (Homo sapiens, UniProt P30559); test: Late-stage radioligand binding dose response assay to identify inhibitors of NADPH oxidase 1 (NOX1): PDSP screen Ki. [Related pubchem assays (depositor defined):AID1792, AID1796, AID1823, AID2532, AID2538, AID2539, AID2541, AID2545, AID2556, AID2664, AID2752, AID2773, AID434992, AID434993, AID434997, AID435002, AID435009, AID435013, AID463255 …
# [16] = target: Sodium-dependent noradrenaline transporter (Homo sapiens, UniProt P23975); test: as above
# [17] = target: Sigma non-opioid intracellular receptor 1 (Homo sapiens, UniProt Q99720); test: as above
# [18] = target: 5-hydroxytryptamine receptor 2C (Homo sapiens, UniProt P28335); test: as above
# [19] = target: Glutamate receptor ionotropic, kainate 5 (Rattus norvegicus, UniProt Q63273); test: as above
# [20] = target: Muscarinic acetylcholine receptor M4 (Homo sapiens, UniProt P08173); test: as above
# [21] = target: NADPH oxidase 1 (Homo sapiens, UniProt Q9Y5S8); test: Luminescence-based cell-based dose response assay to identify inhibitors of NADPH oxidase 1 (NOX1).; assay type: functional
# [22] = target: T1, Eukaryotic translation initiation factor 2-alpha kinase 3 (Homo sapiens, UniProt Q9NZJ5); test: Counterscreen assay for PERK inhibitors: Dose response cell-based high throughput screening assay to measure inhibition of PERK at 6 hours. [Related pubchem assays: 1522, 1416 ]; assay type: functional
# [23] = target: T1, Eukaryotic translation initiation factor 2-alpha kinase 3; test: Dose response cell-based high-throughput screening assay to measure PERK inhibition. [Related pubchem assays: 1416 ]; assay type: functional
# [24] = target: Bcl-2-like protein 10 (Homo sapiens, UniProt Q9HD36); test: Bcl-B/TR3 peptide binding disruption – biochemical, fluorescence polarization, FITC-TR3 peptide, selectivity assay for Bfl-1 inhibitor project, primary screen (AID 748);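 also: fluorescence polarization from a fluorescein-labelled TR3 peptide binding purified Bcl-B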
# [25] = target: DNA dC->dU-editing enzyme APOBEC-3A (Homo sapiens, UniProt P31941); test: Dose Response confirmation of small molecule APOBEC3A DNA Deaminase Inhibitors via a fluorescence-based single-stranded DNA deaminase assay. [Related pubchem assays (depositor defined):AID493011, AID493024]; assay type: functional
# [26] = target: DNA dC->dU-editing enzyme APOBEC-3G (Homo sapiens, UniProt Q9HC16); assay type: functional;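 also: Dose-response counterscreen measuring inhibition of APOBEC3G DNA deaminase activity, run while confirming APOBEC3A inhibitors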
# [27] = target: Dual specificity protein phosphatase 3 (Homo sapiens, UniProt P51452); test: inhibition constants for human DUSP3 – biochemical, colorimetric, SAR follow-up (AID 2004)
# [28] = target: Cyclin-dependent kinase 5/CDK5 activator 1 (Homo sapiens, UniProt Q00535); test: blockade of human CDK5 activity – biochemical, cherry-picked samples, set 2, dose response (AID 504545)
# [29] = test system: Saccharomyces cerevisiae; test: S. cerevisiae Caspase-1/ASC signal blockers IC50, NALP1 inhibitor project selectivity test (AID 488863); assay type: functional, organism-based
# [30] = target: NACHT, LRR and PYD domains-containing protein 1 (Homo sapiens, UniProt Q9C000); test: NALP1 inhibitors in yeast, dose response, luminescent (AID 488860); assay type: functional
# [31] = target: Cystic fibrosis transmembrane conductance regulator/Golgi-associated PDZ and coiled-coil motif-containing protein (Homo sapiens, UniProt P13569+Q9HD26); test: potency against CAL PDZ-peptide interaction – biochemical, fluorescence polarization, Cerulean-tagged CAL PDZ, cherry-picks, dose response (AID 504773)
# [32] = target: T2, Tyrosine-protein phosphatase non-receptor type 7 (Homo sapiens, UniProt P35236); test: redox-active compounds inhibiting HePTP phosphatase – biochemical, fluorescence, mechanism study (AID 2068); assay type: functional
# T2 sequence (P35236 whole entry): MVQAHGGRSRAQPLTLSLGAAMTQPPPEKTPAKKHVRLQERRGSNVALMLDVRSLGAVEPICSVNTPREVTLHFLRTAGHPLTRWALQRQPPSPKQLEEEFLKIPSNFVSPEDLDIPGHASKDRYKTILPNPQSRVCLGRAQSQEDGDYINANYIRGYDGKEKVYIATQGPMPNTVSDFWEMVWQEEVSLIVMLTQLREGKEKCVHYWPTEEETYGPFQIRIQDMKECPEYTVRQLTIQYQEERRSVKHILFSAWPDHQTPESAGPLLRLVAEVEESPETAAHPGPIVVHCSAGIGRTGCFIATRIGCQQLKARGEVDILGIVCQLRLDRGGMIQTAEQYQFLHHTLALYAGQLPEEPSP
# [33] = target: Voltage-gated N-type calcium channel alpha-1B subunit/Amyloid beta A4 precursor protein-binding family A member 1 (Homo sapiens, UniProt Q00975+Q02410); test: disruptors of Mint-PDZ/N-type channel peptide interaction – biochemical, HTRF, SAR follow-up (AID 2489); assay type: functional
# [34] = blockers of SFLLRN-triggered platelet ATP secretion – cell-based, human platelets, luminescence, dry powder, dose response (AID 493100); assay type: functional
# [35] = target: G2/mitotic-specific cyclin-B1 (Homo sapiens, UniProt P14635); test: HeLa cell cycle G2/M accumulation – FACS, mechanism study for Wee1 degradation inhibitor project, late-stage follow-up, panel member Cyclin B Degradation (AID 2088)
# [36] = target: Wee1-like protein kinase (Homo sapiens, UniProt P30291); test: HeLa cell cycle G2/M accumulation – FACS, mechanism study for Wee1 degradation inhibitor project, late-stage follow-up, panel member Wee1 Degradation (AID 2088)
# [37] = test system: INS1; test: INS-1E survival protection against cytokine death – cell-based, luminescence, retest, dose response (AID 449756); assay type: functional; details: Rattus norvegicus;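 also: cell death triggered by IL-1 beta plus TNF-alpha plus IFN-gamma mixture; protective hits raise ATP signal compared with cytokine alone wells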
# [38] = target: T3, Ubiquitin-conjugating enzyme E2 N (Homo sapiens, UniProt P61088); assay type: functional;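 also: Dose-response confirmation in a TR-FRET assay detecting UBC13-driven polyubiquitin chain formation, inhibition measured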
# T3 sequence (P61088 whole entry): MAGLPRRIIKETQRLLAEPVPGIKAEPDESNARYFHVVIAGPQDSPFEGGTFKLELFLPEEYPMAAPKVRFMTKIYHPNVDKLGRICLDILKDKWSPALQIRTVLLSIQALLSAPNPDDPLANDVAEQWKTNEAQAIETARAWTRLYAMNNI
# [39] = Cytotoxicity screening for potential Inhibitors of Bacterial Capsule Biogenesis. [Related pubchem assays (depositor defined):AID488970]; assay type: functional
# [40] = target: Intestinal-type alkaline phosphatase (Homo sapiens, UniProt P09923); test: Dose Response confirmation of uHTS hits from a small molecule inhibitors of human intestinal alkaline phosphatase via a luminescent assay. [Related pubchem assays (depositor defined):AID2544, AID2574]; assay type: functional
# [41] = Luminescence Cell-Based Dose Response HTS to Identify Inhibitors of 5'UTR Stem-Loop Driven Prion Protein mRNA Translation in H4 Neuroglioblastoma Cells. [Related pubchem assays: 1827 (Project Summary), 1813 (Primary HTS)]; assay type: functional
# [42] = HEK-293T viability loss after treatment – luminescence, T-cell screen hits, cytotoxicity control for TCR NF-kB inhibitor project, dose response (AID 489026); assay type: functional, cell-based;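 also: cells exposed to compound about 14 hours before the viability readout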
# [43] = alpha-synuclein stem-loop luciferase translation blockers – H4 neuroglioma cells, luminescence, confirmation (AID 1988); assay type: functional, cell-based
# [44] = test system: J774.A1; test: Confirmation of image-based Screening Assay for Inhibitors of Phagocytosis. [Related pubchem assays (depositor defined):AID1029, AID1643]; assay type: functional, cell-based; details: Mus musculus
# [45] = luciferase reporter signal suppression in cells – H4 neuroglioma cells, luminescence, dose response (AID 1990); assay type: functional, cell-based
# [46] = test system: BJ; test: BJ-TERT-LT-ST fibroblast viability loss – cell-based, RAS-independent, luminescence, dose response (AID 1935); assay type: functional; details: Homo sapiens;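 also: BJ fibroblasts immortalized with TERT plus LT and ST oncogenes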
# [47] = DRD fibroblast viability loss – cell-based, non-viral oncogenic, luminescence, dose response (AID 1934); assay type: functional; details: Homo sapiens
# [48] = test system: BJ; test: BJ-TERT fibroblast viability loss – cell-based, RAS-independent, luminescence, dose response (AID 1933); assay type: functional; details: Homo sapiens
# [49] = test system: BJ; test: cells; assay type: functional, cell-based; details: Homo sapiens
# T1 sequence (Q9NZJ5 whole entry): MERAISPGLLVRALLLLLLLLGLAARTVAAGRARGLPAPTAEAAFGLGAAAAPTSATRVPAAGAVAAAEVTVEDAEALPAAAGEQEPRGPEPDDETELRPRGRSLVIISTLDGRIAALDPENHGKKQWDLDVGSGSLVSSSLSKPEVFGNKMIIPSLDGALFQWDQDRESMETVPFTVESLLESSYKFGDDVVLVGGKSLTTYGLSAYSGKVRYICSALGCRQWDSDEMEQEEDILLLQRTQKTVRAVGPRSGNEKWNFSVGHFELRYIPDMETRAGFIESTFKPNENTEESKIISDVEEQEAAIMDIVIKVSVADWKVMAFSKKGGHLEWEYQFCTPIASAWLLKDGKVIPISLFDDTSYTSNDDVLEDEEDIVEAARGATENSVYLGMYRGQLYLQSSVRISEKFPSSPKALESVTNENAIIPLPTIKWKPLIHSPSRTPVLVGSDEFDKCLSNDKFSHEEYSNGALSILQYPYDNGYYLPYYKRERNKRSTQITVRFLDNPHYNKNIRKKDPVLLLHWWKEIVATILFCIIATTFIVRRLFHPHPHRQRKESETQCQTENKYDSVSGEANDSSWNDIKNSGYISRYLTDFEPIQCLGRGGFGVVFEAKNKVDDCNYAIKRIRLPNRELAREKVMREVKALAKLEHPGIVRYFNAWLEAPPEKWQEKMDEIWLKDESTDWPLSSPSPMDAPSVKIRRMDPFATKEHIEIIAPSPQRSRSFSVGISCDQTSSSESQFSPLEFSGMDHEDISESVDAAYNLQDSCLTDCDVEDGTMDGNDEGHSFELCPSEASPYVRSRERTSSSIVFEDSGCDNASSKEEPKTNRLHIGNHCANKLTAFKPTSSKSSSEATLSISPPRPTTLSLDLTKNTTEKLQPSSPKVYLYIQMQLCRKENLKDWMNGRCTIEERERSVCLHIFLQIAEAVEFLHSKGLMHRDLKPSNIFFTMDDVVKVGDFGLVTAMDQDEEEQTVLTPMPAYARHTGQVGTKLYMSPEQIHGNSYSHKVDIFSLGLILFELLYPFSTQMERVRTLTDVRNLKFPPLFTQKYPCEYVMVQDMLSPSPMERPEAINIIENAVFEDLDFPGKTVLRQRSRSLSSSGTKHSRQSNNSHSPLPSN
# NACHT, LRR and PYD domains-containing protein 1, sequence (Q9C000 1-1212 limits assumed): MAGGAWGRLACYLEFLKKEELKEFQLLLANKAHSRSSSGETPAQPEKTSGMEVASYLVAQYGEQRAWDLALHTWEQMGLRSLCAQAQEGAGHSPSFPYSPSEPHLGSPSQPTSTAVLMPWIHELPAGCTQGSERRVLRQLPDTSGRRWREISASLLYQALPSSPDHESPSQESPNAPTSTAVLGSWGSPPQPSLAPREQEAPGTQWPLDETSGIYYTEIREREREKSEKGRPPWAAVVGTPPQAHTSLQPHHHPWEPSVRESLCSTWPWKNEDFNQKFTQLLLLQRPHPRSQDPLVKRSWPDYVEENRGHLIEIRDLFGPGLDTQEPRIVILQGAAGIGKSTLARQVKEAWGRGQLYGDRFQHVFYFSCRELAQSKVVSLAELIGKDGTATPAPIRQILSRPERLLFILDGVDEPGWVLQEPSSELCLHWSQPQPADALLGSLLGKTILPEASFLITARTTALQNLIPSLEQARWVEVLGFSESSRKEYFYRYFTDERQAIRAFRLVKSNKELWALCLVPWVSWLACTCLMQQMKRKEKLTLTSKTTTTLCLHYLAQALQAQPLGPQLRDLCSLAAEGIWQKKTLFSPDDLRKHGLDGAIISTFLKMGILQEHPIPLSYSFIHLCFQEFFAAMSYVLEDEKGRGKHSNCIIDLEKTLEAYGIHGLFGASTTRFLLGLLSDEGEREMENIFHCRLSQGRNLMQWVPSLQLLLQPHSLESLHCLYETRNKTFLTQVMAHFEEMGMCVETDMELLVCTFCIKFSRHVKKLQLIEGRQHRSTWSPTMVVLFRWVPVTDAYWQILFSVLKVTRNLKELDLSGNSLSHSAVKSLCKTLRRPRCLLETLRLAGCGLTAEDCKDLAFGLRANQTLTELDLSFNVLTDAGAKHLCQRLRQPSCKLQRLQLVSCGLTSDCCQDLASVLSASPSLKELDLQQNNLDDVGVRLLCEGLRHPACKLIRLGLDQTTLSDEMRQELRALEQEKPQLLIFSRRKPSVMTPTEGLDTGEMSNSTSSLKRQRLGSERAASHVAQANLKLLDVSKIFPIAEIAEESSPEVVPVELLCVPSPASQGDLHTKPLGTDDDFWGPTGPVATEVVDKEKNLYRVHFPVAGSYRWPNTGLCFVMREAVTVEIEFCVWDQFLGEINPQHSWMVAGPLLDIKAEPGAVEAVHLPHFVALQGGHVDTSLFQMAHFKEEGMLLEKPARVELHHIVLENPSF
# NACHT, LRR and PYD domains-containing protein 1, sequence (Q9C000 1213-1473 limits assumed): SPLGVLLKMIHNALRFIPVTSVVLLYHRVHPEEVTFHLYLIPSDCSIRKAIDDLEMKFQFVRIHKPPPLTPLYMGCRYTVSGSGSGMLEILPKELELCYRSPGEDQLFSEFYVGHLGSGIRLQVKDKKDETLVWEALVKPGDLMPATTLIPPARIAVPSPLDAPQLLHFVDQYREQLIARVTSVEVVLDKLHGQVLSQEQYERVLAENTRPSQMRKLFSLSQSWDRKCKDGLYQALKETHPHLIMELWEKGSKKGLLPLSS
# Muscarinic acetylcholine receptor M4, sequence (P08173 whole entry): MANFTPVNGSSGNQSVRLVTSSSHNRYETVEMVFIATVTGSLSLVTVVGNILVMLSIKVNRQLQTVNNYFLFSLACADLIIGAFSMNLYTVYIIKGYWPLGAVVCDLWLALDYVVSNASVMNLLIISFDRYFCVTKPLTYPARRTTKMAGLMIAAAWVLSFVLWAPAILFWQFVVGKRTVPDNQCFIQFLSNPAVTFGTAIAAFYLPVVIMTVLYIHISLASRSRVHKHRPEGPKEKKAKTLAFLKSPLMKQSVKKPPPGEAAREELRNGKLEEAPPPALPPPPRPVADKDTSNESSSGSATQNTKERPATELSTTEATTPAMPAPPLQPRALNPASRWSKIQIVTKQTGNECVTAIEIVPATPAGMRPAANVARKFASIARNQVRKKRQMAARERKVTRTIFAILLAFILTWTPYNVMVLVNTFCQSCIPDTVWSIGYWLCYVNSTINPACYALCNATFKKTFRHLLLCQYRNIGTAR
# Muscarinic acetylcholine receptor M5, sequence (P08912 whole entry): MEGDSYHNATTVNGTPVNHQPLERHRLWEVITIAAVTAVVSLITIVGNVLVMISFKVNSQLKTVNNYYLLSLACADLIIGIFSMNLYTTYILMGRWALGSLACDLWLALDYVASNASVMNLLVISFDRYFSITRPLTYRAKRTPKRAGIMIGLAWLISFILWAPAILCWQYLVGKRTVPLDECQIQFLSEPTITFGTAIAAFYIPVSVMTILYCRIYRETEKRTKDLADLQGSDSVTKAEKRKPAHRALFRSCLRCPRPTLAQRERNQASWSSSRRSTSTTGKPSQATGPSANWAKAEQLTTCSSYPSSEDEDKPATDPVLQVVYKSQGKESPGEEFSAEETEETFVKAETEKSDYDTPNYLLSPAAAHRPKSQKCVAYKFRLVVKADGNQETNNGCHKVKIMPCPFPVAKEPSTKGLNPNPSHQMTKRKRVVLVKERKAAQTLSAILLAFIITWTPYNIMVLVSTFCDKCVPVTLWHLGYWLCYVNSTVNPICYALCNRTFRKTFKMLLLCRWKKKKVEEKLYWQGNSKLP
# NADPH oxidase 1, sequence (Q9Y5S8 whole entry): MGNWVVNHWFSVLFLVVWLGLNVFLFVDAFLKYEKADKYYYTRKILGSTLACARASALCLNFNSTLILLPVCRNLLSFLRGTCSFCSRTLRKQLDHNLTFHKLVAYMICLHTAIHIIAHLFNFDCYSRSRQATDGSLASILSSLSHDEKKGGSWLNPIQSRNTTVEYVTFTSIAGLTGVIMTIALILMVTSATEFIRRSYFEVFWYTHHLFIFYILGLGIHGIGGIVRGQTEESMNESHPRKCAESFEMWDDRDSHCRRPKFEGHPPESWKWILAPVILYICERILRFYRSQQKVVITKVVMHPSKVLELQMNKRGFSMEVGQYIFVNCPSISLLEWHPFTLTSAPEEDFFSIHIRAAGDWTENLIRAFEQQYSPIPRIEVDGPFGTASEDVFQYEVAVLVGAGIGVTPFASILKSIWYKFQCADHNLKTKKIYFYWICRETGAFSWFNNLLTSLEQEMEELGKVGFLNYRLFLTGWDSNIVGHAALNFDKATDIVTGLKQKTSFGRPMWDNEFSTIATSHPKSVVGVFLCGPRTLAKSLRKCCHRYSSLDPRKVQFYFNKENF
# D(3) dopamine receptor, sequence (P35462 whole entry): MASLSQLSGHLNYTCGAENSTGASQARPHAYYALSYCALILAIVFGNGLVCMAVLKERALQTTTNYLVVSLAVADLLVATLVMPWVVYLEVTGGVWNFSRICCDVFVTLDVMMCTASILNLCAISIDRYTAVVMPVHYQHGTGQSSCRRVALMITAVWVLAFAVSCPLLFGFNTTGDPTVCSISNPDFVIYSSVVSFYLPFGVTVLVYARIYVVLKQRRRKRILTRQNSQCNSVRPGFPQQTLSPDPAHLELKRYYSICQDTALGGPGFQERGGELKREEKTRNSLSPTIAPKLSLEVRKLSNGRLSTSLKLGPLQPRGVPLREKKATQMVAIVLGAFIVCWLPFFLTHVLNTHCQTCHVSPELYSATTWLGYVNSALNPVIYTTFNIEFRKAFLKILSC
# Alpha-2C adrenergic receptor, sequence (P18825 whole entry): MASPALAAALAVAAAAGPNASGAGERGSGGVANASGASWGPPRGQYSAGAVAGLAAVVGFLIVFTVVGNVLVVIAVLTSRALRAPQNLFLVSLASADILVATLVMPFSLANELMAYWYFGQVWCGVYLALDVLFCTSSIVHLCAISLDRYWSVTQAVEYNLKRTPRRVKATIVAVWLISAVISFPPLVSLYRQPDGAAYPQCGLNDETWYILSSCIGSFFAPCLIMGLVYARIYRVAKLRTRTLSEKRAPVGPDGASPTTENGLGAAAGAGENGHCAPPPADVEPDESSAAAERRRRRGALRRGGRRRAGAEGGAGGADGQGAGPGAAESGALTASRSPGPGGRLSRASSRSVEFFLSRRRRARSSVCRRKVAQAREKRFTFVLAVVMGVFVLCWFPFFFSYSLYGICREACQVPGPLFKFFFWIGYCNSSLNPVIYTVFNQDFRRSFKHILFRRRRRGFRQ
compound,measurement,setting,value
C[N+]1(C)[C@@H]2CC[C@H]1CC(OC(=O)[C@@H](CO)c1ccccc1)C2 (stereo partly specified),IC50,[1],4.91 µM (active)
same,IC50,[2],> 100 µM (inactive)
CN1c2ccccc2Sc2cc(N)ccc21,Ki,[3],> 10 µM (inactive)
same,Ki,[4],6.92 µM (active)
same,Ki,[5],> 10 µM (inactive)
same,Ki,[6],2.72 µM (active)
same,EC50,[7],1.27 µM (active)
same,Ki,[8],10 µM (active)
same,Ki,[9],0.556 µM (active)
same,EC50,[10],> 60 µM (not active)
same,Ki,[11],9.06 µM (active)
same,Ki,[12],5.76 µM (active)
same,Ki,[13],10 µM (inactive)
same,CC50,[14],27.1 µM (active)
same,Ki,[15],> 10 µM (inactive)
same,Ki,[16],3.94 µM (active)
same,Ki,[17],> 10 µM (inactive)
same,Ki,[18],2.96 µM (active)
same,Ki,[19],> 10 µM (inactive)
same,Ki,[20],> 10 µM (inactive)
same,IC50,[21],0.044 µM (active)
CCCn1cnc2c(S)nc(N)nc21,EC50,[22],> 55.7 µM (not active)
same,EC50,[23],> 55.7 µM (not active)
CCC1=[N+](C)CCn2c(C)ccc21,IC50,[24],> 100 µM (inactive)
same,IC50,[25],1.51 µM (active)
same,IC50,[26],1.32 µM (active)
CCC(CO)N/C=C1\C(=O)N(c2c(Cl)cccc2Cl)c2ccccc21 (stereo unspecified),Ki,[27],24.2 µM (inactive)
CC(C)(C)C(=O)c1sc(Nc2ccccc2)nc1N,AC50,[28],23.4 µM (active)
CCCCC(=O)Nc1ccc(C(=O)NNC(=S)NC(=O)c2ccco2)cc1,IC50,[29],18.8 µM (active)
same,IC50,[30],25.7 µM (active)
O=C1OC(c2ccccc2)(c2ccccc2)c2ccccc21,AC50,[31],17.3 µM (active)
O=C(Nc1ccc2nc(-c3ccco3)c(-c3ccco3)nc2c1)N1CCOCC1,IC50,[32],0.693 µM (active)
same,IC50,[33],22.3 µM (active)
CCCC(=O)Nc1cccc(NC(=O)c2ccccc2C)c1,AC50,[34],5.5 µM (active)
Cc1cc(=O)[nH]c(-n2nc(C)cc2NC(=O)c2cccs2)n1,EC50,[35],> 49.7 µM (inactive)
same,EC50,[36],> 49.7 µM (inactive)
N=C(N)N/N=C/c1ccc(OCc2ccccc2)cc1,AC50,[37],6.57 µM (active)
same,EC50,[7],0.92 µM (active)
same,IC50,[38],> 20 µM (inactive)
same,CC50,[39],10.4 µM (active)
same,EC50,[10],> 60 µM (not active)
Cc1[nH]n(-c2nc(-c3ccccc3F)cc(=O)[nH]2)c(=O)c1CCO,IC50,[40],1.07 µM (active)
CCOC(=O)Nc1nc(-c2ccccc2)c(C(=O)c2ccccc2)s1,EC50,[41],1.38 µM (active)
same,IC50,[42],68.3 µM (inactive)
same,EC50,[43],0.198 µM (active)
same,IC50,[44],0.215 µM (active)
same,EC50,[45],1.41 µM (active)
same,EC50,[46],4.12 µM (inconclusive)
same,EC50,[47],12.3 µM (inconclusive)
same,EC50,[48],7.17 µM (inconclusive)
same,EC50,[49],17.1 µM (inconclusive)
